{"source": "patent US20060147456A1", "about": "“Induction of apoptosis in toll-like receptor expressing tumor cells” (priority 2004, published 2006)", "key": {"[1]": {"tested_on": "Cama-1 cells", "test": "BrdU incorporation and subdiploid DNA content by FACS", "type": "cell-based, human", "protocol": "Cell recovery after treatment with TLR ligands was measured by crystal violet staining (Sigma-Aldrich). Cells were plated at 10^4 cells/well in 96 well plates. After 72 hours of culture either with or without TLR ligand, the cells were washed with PBS, fixed in 6% formaldehyde (Sigma-Aldrich) for 20 minutes, washed twice, and then stained with 0.1% crystal violet for 10 minutes. After washes and incubation in 1% SDS for 1 hour, the absorbance was read at 605 nm on a Vmax plate reader (Molecular Devices, Sunnyvale, Calif.). Annexin V staining was performed with an annexin-FITC apoptosis detection kit (BD Pharmingen, San Diego, Calif.) according to the manufacturer's instructions. Sub-diploid cells were detected by staining with 3 μg/mL propidium iodide (PI) (Molecular probes, Eugene, Oreg.), after overnight permeabilization in 70% ethanol. Fluorescence was analyzed by flow cytometry on a FACScalibur (Becton Dickinson, Mountain View, Calif.) equipped with a doublet-discrimination module and using Celiquest Pro software (Becton Dickinson).\nTwo cell lines, the colon cancer cell line LS174T and the breast cancer cell line Cama-1, were analyzed for death and cell cycle changes. Cells were cultured for 48 hours in either the presence or absence of Poly IC (5 μg/ml). Following a 30-minute pulse with 1 μg/ml bromodeoxyuridine (BrdU), the cells were fixed overnight at 4° C. in 70% ethanol before staining with FITC-coupled anti-BrdU monoclonal antibody and 3 μg/ml propidium iodide. Cell death and the cell cycle were analyzed by flow cytometry (FACS). BrdU incorporation is a measure of proliferation, whereas propidium iodide staining allows the quantification of DNA content, in particular the subdiploid cell population undergoing apoptosis.\nTLR3 was analyzed for its role in Poly IC induced apoptosis. Cama-1 cells were transfected with siRNA corresponding to either: an irrelevant sequence (Scr RNA; sequence: ACUAGUUCACGAGUCACCUtt) (SEQ ID NO: 21), or hTLR3 (sequence: CAGUGUUGAACCUUACCCAtt) (SEQ ID NO: 22). siRNA transfections were performed for 5 hours in 1 mL OptiMEM™ medium containing 3 μg/mL lipofectamine 2000 and 100 nM siRNA. Cells were then washed in phosphate buffered saline solution (PBS) and cultured for 72 hours in complete medium before subsequent 48 hour treatment with 5 μg/mL Poly IC. The cell cycle was then analyzed by FACS after staining with ethidium bromide, as described in Example 3."}, "[2]": {"tested_on": "human primary breast tumor cells", "test": "Apoptosis by PI staining (subG0/G1 cells)", "type": "cell-based", "conditions": "50 μg/ml Poly IC, 48 h; PBS 19.5%", "from_the_text": "Human primary breast tumor sample was obtained from the Centre Léon Bérard (Lyon, France) in agreement with the Hospital bioethical protocols. A single cell suspension was obtained after digestion with Collagenase A (Sigma-Aldrich) and washes and enrichment in Human Epithelial Antigen (HEA) positive cells using HEA-microbeads (Mylteni Biotech, Bergisch Gladbach, Germany) according to manufacturer's instructions. The final single cell suspension contained more than 80% HEA positive cells and less than 2% CD4^+ hematopoietic contaminants.\nCell recovery after treatment with TLR ligands was measured by crystal violet staining (Sigma-Aldrich). Cells were plated at 10^4 cells/well in 96 well plates. […] Sub-diploid cells were detected by staining with 3 μg/mL propidium iodide (PI) (Molecular probes, Eugene, Oreg.), after overnight permeabilization in 70% ethanol. Fluorescence was analyzed by flow cytometry on a FACScalibur (Becton Dickinson, Mountain View, Calif.) equipped with a doublet-discrimination module and using Celiquest Pro software (Becton Dickinson).\nWe then tried to determine the effect that Poly IC has on human primary breast tumor cells. […] Apoptosis was measured by PI staining. […]"}, "[3]": {"tested_on": "eye tumors", "test": "Eye tumor development in TRP-Tag/IFNαβγR−/− mice", "type": "in vivo, mouse", "conditions": "100 μg/dose intravenous on days 21, 23, 25, 27 and 29", "protocol": "We analyzed the effect of IFN on Poly IC induced apoptosis in vivo. TRP-Tag mice express SV40 T antigen in the retinal pigmented epithelium and typically develop eye tumors with complete penetrance within weeks from birth.\nIn these experiments, fourteen to sixteen TRP-Tag/IFNαβγR−/− mice per experiment (these are TPR-Tag mice that had been crossed to mice simultaneously deficient in the receptor for type I interferons (IFNαβR) and the receptor for type II interferon (IFNγR)) were treated on days 21, 23, 25, 27 and 29 by intravenous injections of either Poly IC (100 μg/dose) or PBS. The kinetics of visible eye tumor development was monitored 2-3 times per week."}, "[4]": {"tested_on": "IL-6", "test": "IL-6 secretion by ELISA in siRNA transfected Cama-1 cells", "type": "cell-based, human", "conditions": "24 h with 5 μg/ml Poly IC, untreated 10", "protocol": "IL-6 secretion was measured in culture supernatants by standard Enzyme-Linked Assay (ELISA) using a DuoSet ELISA kit according to manufacturer's instructions (R&D Systems).\nIn parallel, IL-6 concentration in the supernatants of siRNA transfected Cama-1 cells cultured for 24 hours either with or without 5 μg/ml of Poly IC was determined by ELISA. […] In the siRNA IRAK-4 group, untreated and treated cells had IL-6 concentrations (pg/ml/10^6 cells) of 10 and 40, respectively. In the siRNA TRAF6 group, untreated and treated cells had IL-6 concentrations (pg/ml/10^6 cells) of 10 and 20, respectively."}, "[5]": {"tested_on": "phosphorylated Stat1 (tyrosine 701)", "test": "Western Blot of Cama-1 cell lysate for phosphorylated Stat1", "type": "cell-based, human", "conditions": "5 μg/ml Poly IC", "protocol": "Cama-1 cells were lysed in 1% Nonidet-P40-containing buffer. 20 μg total protein was loaded per lane on SDS-Polyacrylamide gels (Invitrogen). Western Blots (WB) were performed with standard techniques using the antibodies described above. Anti IRAK-4 monoclonal antibodies were generated in the laboratory according to the protocol described in Fossiez et al., “T cell interleukin-17 induces stromal cells to produce proinflammatory and hematopoietic cytokines”, J. Exp. Med., vol. 183(6), pp. 2593-2603 (1996).\nThe involvement of type 1 interferon in TLR3 mediated apoptosis was evaluated. Cama-1 cells were incubated with 5 μg/ml Poly IC for either 0 hours, 1 hour, 6 hours, 18 hours or 24 hours. The presence of IFN-β, phosphorylated Stat1 (tyrosine 701) (P-Stat-1) and total Stat-1 in the cell lysate were analyzed by Western Blot."}}}
{"substance": "polyinosinic-polycytidylic acid [Poly IC]", "values": [{"measurement": "percentage of cells with subdiploid DNA content", "setting": "[1]; Cama-1, 48 h with 5 μg/ml Poly IC (4% before treatment)", "result": 17, "unit": "%"}, {"measurement": "percentage of cells that incorporated BrdU", "setting": "[1]; Cama-1, 48 h with 5 μg/ml Poly IC (15% before treatment)", "result": 2, "unit": "%"}, {"measurement": "percentage of subdiploid cells", "setting": "[1]; Cama-1 transfected with hTLR3 siRNA, 48 h with 5 μg/mL Poly IC", "result": 3, "unit": "%"}, {"measurement": "percentage of subdiploid cells", "setting": "[1]; Cama-1 transfected with scrambled RNA, 48 h with 5 μg/mL Poly IC (from 2%)", "result": 45, "unit": "%"}, {"measurement": "cells with low DNA content (subG0/G1 cells)", "setting": "[2]", "result": 38.6, "unit": "%"}, {"measurement": "delay of appearance of eye tumors compared to PBS", "setting": "[3]", "result": "up to 21 days"}, {"measurement": "IL-6 concentration in supernatant", "setting": "[4]; scr group", "result": 110, "unit": "pg/ml/10^6 cells"}, {"measurement": "IL-6 concentration in supernatant", "setting": "[4]; siRNA IRAK-4 group", "result": 40, "unit": "pg/ml/10^6 cells"}, {"measurement": "IL-6 concentration in supernatant", "setting": "[4]; siRNA TRAF6 group", "result": 20, "unit": "pg/ml/10^6 cells"}, {"measurement": "time of maximum Stat1 phosphorylation", "setting": "[5]", "result": 6, "unit": "h"}, {"measurement": "Stat1 phosphorylation", "setting": "[5]; 0 to 24 hours", "result": "observed"}]}
